Reference: patent US20250113824A1, “WEED CONTROL METHOD” (SUMITOMO CHEMICAL COMPANY, LIMITED, priority 2018, published 2025)

Experiments:
[1] = tested on: glyphosate-resistant weeds and volunteer glyphosate-tolerant soybean and cotton; test: Soil treatment pot test in greenhouse (Example 1); format: in vivo; settings: soil treated on day of seeding; 6.25, 12.5, 25, 50, 100 or 150 g/ha; 200 L/ha; twenty-eight days after treatment
Procedure: (§1) In a plastic pot are seeded glyphosate-resistant Amaranthus palmeri in which the number of copies of EPSPS gene has been increased, glyphosate-resistant waterhemp in which the number of copies of EPSPS gene has been increased, glyphosate-resistant kochia in which the number of copies of EPSPS gene has been increased, marestail which is resistant to glyphosate by involving an ABC transporter, Guernsey fleabane which is resistant to glyphosate by involving an ABC transporter, fleabane which is resistant to glyphosate by involving an ABC transporter, glyphosate-resistant goosegrass having Thr102Ile, glyphosate-resistant goosegrass having Pro106Ser, glyphosate-resistant goosegrass having Pro106Ala, glyphosate-resistant goosegrass having Pro106Leu, glyphosate-resistant goosegrass having Thr102Ile and Pro106Ser, glyphosate-resistant darnel having Thr102Ile, glyphosate-resistant darnel having Pro106Ser, glyphosate-resistant darnel having Pro106Ala, glyphosate-resistant darnel having Pro106Leu, volunteer glyphosate-tolerant soybean, and volunteer glyphosate-tolerant cotton. On the same day, the soil is treated with the present compound at the application rate of 6.25, 12.5, 25, 50, 100 or 150 g/ha. The amount of a liquid sprayed is 200 L/ha. Subsequently, the plants are cultivated in a greenhouse.

[2] = tested on: glyphosate-resistant weeds and volunteer glyphosate-tolerant soybean and cotton; test: Foliar treatment pot test in greenhouse (Example 2); format: in vivo; settings: foliar application after 21 days cultivation; 6.25, 125, 25, 50, 100 or 150 g/ha; 200 L/ha; fourteen days after treatment
Procedure: as §1, with “The plants are cultivated in a greenhouse for 21 days, and then” for “On the same day, the soil is treated with”, “compound is applied to foliage of the plants” for “compound”, “at” for “at the”, “[…],” for “12.5,”

CCOC(=O)COc1ncccc1Oc1cc(-n2c(=O)cc(C(F)(F)F)n(C)c2=O)c(F)cc1Cl [present compound, ethyl [3-[2-chloro-4-fluoro-5-(1-methyl-6-trifluoromethyl-2,4-dioxo-1,2,3,4-tetrahydropyrimidin-3-yl)phenoxy]-2-pyridyloxy]acetate]
effect against the weeds [1]: significant effect | effect against the weeds [2]: significant effect
